Measured values reported in PubChem BioAssay AID652219 (Broad Institute, 2013).
Active and inactive are the calls of the source. How the calls were made is not given here.

test system: V. cholerae SLS353 luxOD47E qrr4-GFP fluorescence; test: Quorum LuxO inhibitors, V. cholerae SLS353 luxOD47E qrr4 GFP fluorescence, confirmatory dose response (AID 652219)

Question: With `Cc1ccc(OCCNC(=O)c2cccc(C)c2)cc1` as the compound, how does the AC50 read?
Answer: 100 µM (inactive)

Question: Which AC50 does the source give for `CCC(C)NC(=O)Cc1ccc(-c2ccccc2)cc1` (stereo not given) here?
Answer: > 500 µM (inactive)

Question: `COc1ccccc1NC(=O)COC(=O)c1cc2c(s1)CCC2` was tested. Which AC50 did it give?
Answer: > 500 µM (inactive)

Question: For `CCCn1nnnc1NCc1ccc(C(C)C)cc1`, which AC50 is on record?
Answer: > 500 µM (inactive)

Question: For `O=C(Cc1ccc(-c2ccccc2)cc1)NC1CCCC1`, which AC50 is on record?
Answer: > 500 µM (inactive)

Question: How did the AC50 turn out when `COc1ccccc1NC(=O)COC(=O)c1oc2ccccc2c1C` was run?
Answer: > 500 µM (inactive)

Question: With `O=c1ncn(-c2cccc(Cl)c2)c2ccccc12` as the compound, how does the AC50 read?
Answer: 250 µM

Question: With `COc1ccccc1NC(=O)COC(=O)c1ccc(C)cc1` as the compound, how does the AC50 read?
Answer: > 500 µM (inactive)

Question: With `CCCn1nnnc1NCc1ccc(N2CCCC2)cc1` as the compound, how does the AC50 read?
Answer: > 500 µM (inactive)

Question: Which AC50 does the source give for `Cc1ccc2cc3c(NC(=O)c4ccco4)nn(C)c3nc2c1` here?
Answer: 4 µM

Question: Which AC50 does the source give for `CCn1nnnc1NCc1ccc(N2CCCC2)cc1` here?
Answer: > 500 µM (inactive)

Question: Which AC50 does the source give for `CCCn1nnnc1NCc1ccc(N(CC)CC)cc1` here?
Answer: > 500 µM (inactive)

Question: For `CCOc1ccc(Nc2ccc3nonc3c2[N+](=O)[O-])cc1`, which AC50 is on record?
Answer: > 500 µM (inactive)

Question: For `COc1ccc(Cl)cc1NC(=O)COC(=O)c1ccc(C)o1`, which AC50 is on record?
Answer: > 500 µM (inactive)

Question: With `O=C(Nc1nnc(-c2ccc3c(c2)OCCO3)o1)C1CCCCC1` as the compound, how does the AC50 read?
Answer: 2 µM
